Source: paper PMC11031590, “Narazaciclib, a novel multi-kinase inhibitor with potent activity against CSF1R, FLT3 and CDK6, shows strong anti-AML activity in defined preclinical models” (Scientific Reports, 2024)
Where two headings read alike, the source gives them in different places.

Key:
parental Ba/F3 line = experiment: Parental Ba/F3 proliferation assay (CTG); type: cell-based; conditions: Mus musculus, BaF3
Procedure: (§1) The recombinant Ba/F3 cell lines overexpressing human CSF1R, or human RBM6-CSF1R, or human ETV6-CSF1R were generated using a retrovirus vector (Kyinno Co., Ltd. Beijing). The recombinant Ba/F3 lines overexpressing human Kras G12C orEGFR-L718Q mutants, and different mutant variants of FLT3 were also similarly created as well. A standard proliferation assay via CTG readout was performed according to the vendor’s instructions (KYinno Biotechnology Co., Ltd. Beijing).

Ba/F3-FLT3-ITD (F691L) = Ba/F3-FLT3-ITD (F691L) proliferation assay; type: cell-based, mouse
Procedure: as §1

Ba/F3-FLT3-ITD (Y842H) = Ba/F3-FLT3-ITD (Y842H) proliferation assay; type: cell-based, mouse
Procedure: as §1

Ba/F3-FLT3-ITD (D835V) = Ba/F3-FLT3-ITD (D835V) proliferation assay; type: cell-based, mouse
Procedure: as §1

AM7577 AML-PDX = experiment: AM7577 systemic AML-PDX model; type: in vivo, NOD/scid mice
Procedure: For systemic AML-PDX models, the model establishment and narazaciclib pharmacology experiment were performed essentially as described previously. Briefly, 2 × 10^6 AM7407 cells, or 2 × 10^6 AM7577 cells, or 2 × 10^6 AM5512 cells, or 1.65 × 10^6 AM8096 cells were inoculated intravenously into 4- to 5-week-old female NOD/scid mice for AML development. Engraftment was confirmed by the presence of circulating human CD45+ cells (anti-human CD45 antibody, Cat. 304038, Biolegend) in peripheral blood. Mice with successful engraftment of AML-PDX were randomized into different treatment groups (N = 6) and received their designated treatments. Narazaciclib was administrated orally or intraperitoneally at 10 mg/kg, or 30 mg/kg, or 100 mg/kg every day throughout the study, while Cytarabine was administrated intraperitoneally at 3 mg/kg every day. Following the initiation of designated treatments, leukemic burden was monitored by flow cytometry with anti-human CD45 antibody on the peripheral blood every week as well as on the peripheral blood, bone marrow cells and splenocytes of mice at sacrifice. Mice were sacrifice once the followings are observed: body weight loss over 20%, reduced motility and activity, labored breathing, ruffled coat, hunched back and severe dehydration.

[1] = test system: Ba/F3-ETV6-CSF1R xenograft; experiment: Ba/F3-ETV6-CSF1R subcutaneous xenograft model; type: in vivo, NOD/scid mice; conditions: either 50 mg/kg or 100 mg/kg
Source text: The subcutaneous cell line xenograft (CDX) models and systemic patient-derived xenograft (PDX) models of AML have been extensively described before. For the subcutaneous MV-4-11 CDX model, 5 × 10^6 MV-4-11 tumor cells harvested from exponential growth phase were mixed with Matrigel (1:1) and then inoculated into the right front flank region of 6- to 7-week-old female NOD/scid mice for tumor development. MV-4-11 tumor-bearing mice were randomized into 5 groups (N = 8) when their tumor volume reached approximately 100 mm^3 and received their designated treatments following randomization. Narazaciclib was administrated intraperitoneally at 100 mg/kg twice per week for 3 weeks, while Azacitidine was administrated intraperitoneally at 3 mg/kg twice per week for 3 weeks. For the subcutaneous Ba/F3-ETV6-CSF1R CDX model, 1 × 10^6 Ba/F3-ETV6-CSF1R tumor cells harvested from exponential growth phase were mixed with Matrigel (1:1) and then inoculated into the right front flank region of 6- to 8-week-old female NOD/scid mice for tumor development. Ba/F3-ETV6-CSF1R tumor-bearing mice were randomized into 5 groups (N = 6) when their tumor volume reached approximately 100 mm^3 and received their designated treatments following randomization. […] Tumor volume and body weight were measured at different time points and tumor growth inhibition (TGI) was used as index to determine the therapeutic efficacy.

[2] = Single-dose oral pharmacokinetics in non-tumor bearing mice; type: in vivo; conditions: female, NOD/scid; for CL/F: read-out: CL_F (converted)
Procedure: In order to understand the effective anti-AML exposure of narazaciclib in mice, we conducted a preliminary pharmacokinetic (PK) analysis of a single-dose oral administration of narazaciclib, at the same dose levels as in anti-AML pharmacology study above, in non-tumor bearing mice. Following a single oral administration of narazaciclib at either 30 mg/kg or 100 mg/kg in mice, plasma samples were collected at various timepoints. The plasma concentrations of narazaciclib were analyzed by LC–MS. […] In addition, narazaciclib undergoes relatively fast elimination from plasma with a T1/2 of 2.77 h for narazaciclib at 100 mg/kg or 1.92 h at 30 mg/kg.
Noncompartmental analyses (NCA) were performed using WinNonlinTM Phoenix, version XXX software (Pharsight, Cary, NC) to estimate the PK parameters including T1/2, elimination half-life; Tmax, Time to peak drug concentration; Cmax, maximum concentration; AUC0-∞, area under the plasma concentration–time curve from zero to infinity; AUC0-t, area under the plasma concentration–time curve from zero to the time of the last quantifiable time-point; CL_F, total body clearance; Vz-F, total volume of distribution. Following a single oral administration of narazaciclib at either 100 mg/kg or 30 mg/kg in female NOD/scid mice (N = 3), plasma samples were collected from 3 mice at each timepoint (pre-dose, 1h, 2h, 4h, 8h, 12h and24hpost administration) and analyzed by LC–MS.

[3] = 30 mg/kg single oral, mouse plasma
[4] = 100 mg/kg single oral, mouse plasma

For CN1CCN(c2ccc(Nc3ncc4cc(C#N)c(=O)n(C5CCCC5)c4n3)cc2)CC1 [Narazaciclib, narazaciclib], the IC50 (parental Ba/F3 line) was 1.35 µM, the “% of Ba/F3-FLT3 (IC50)” value (Ba/F3-FLT3-ITD (F691L)) was 53.85% and the IC50 (Ba/F3-FLT3-ITD (F691L); Mus musculus) was 0.162 µM. For the same compound, the “% of Ba/F3-FLT3 (IC50)” value (Ba/F3-FLT3-ITD (Y842H)) was 11.20%, the IC50 (Ba/F3-FLT3-ITD (Y842H); Mus musculus) was 0.0337 µM and the “% of Ba/F3-FLT3 (IC50)” value (Ba/F3-FLT3-ITD (D835V)) was 9.84%. For the same compound, the IC50 (Ba/F3-FLT3-ITD (D835V); Mus musculus) was 0.0296 µM, the “leukemic load in peripheral blood” value (AM7577 AML-PDX; 100 mg/kg orally every day) was “completely diminished the leukemic load in peripheral blood” and the “leukemic load in peripheral blood, spleen and bone marrow” value (AM7577 AML-PDX; AM7577) was “reduce the leukemic load in peripheral blood and spleen, but also the leukemic load in bone marrow”. The “leukemic burdens in spleen and bone marrow” value (AM7577 AML-PDX; AM7577, 100 mg/kg) was “significantly reduced the leukemic burdens in both spleen and bone marrow”, the “leukemic burdens, dose dependence” value (AM7577 AML-PDX; AM7577, different dose levels) was “reduced the leukemic burdens in a dose-dependent manner” and the tumor growth [1] was “significantly delayed the tumor growth”. For the same compound, the AUC(0-inf) ([2]; mouse, plasma, oral, corresponding to 100 mg/kg dose level, read-out: efficacious exposure for anti-AML in mice in terms of AUC0~∞) was under 8190 ng·h/mL, the Cmax ([2]; mouse, plasma, oral, corresponding to 100 mg/kg dose level, read-out: efficacious exposure for anti-AML in mice in terms of Cmax) was under 1460 ng/mL and the AUC(0-t) [2, 3] was 1040 ng·h/mL. It also gave a Tmax [2, 3] of 1 h, a half-life [2, 3] of 1.92 h and an AUC(0-inf) ([2]; 30 mg/kg single oral, mouse plasma, read-out: AUC0-∞) of 1200 ng·h/mL. It also gave a CL/F [2, 3] of 415 mL/min/kg, a Cmax ([2]; 30 mg/kg single oral, mouse plasma, read-out: Cmax) of 469 ng/mL and an AUC(0-t) [2, 4] of 8190 ng·h/mL. It also gave a Tmax [2, 4] of 2 h, a half-life [2, 4] of 2.77 h and an AUC(0-inf) ([2]; 100 mg/kg single oral, mouse plasma, read-out: AUC0-∞) of 8210 ng·h/mL. It also gave a CL/F [2, 4] of 203 mL/min/kg and a Cmax ([2]; 100 mg/kg single oral, mouse plasma, read-out: Cmax) of 1460 ng/mL.
